Assay results from patent US12234245B2, “Sulfonimidamide compounds as inhibitors of interleukin-1 activity” (Genentech, Inc., priority 2018, dated 2025).
Read-outs that look alike come from different tables or passages of the source.

How the values were obtained:
Type in all cases: cell-based
TNFα = TNFα counter-screen in LPS and nigericin stimulated PBMCs; conditions: human PBMCs
Procedure: (§1) Human peripheral blood mononuclear cells (PBMCs), consisting of lymphocytes (T, B and NK cells), monocytes and dendritic cells, were freshly isolated from human peripheral blood from healthy donors. Cells were obtained through an IRB approved donor program by iXCells Biotechnologies where all the donors were tested for bacterial and viral infections. Cells were purified from peripheral blood using ficoll gradient centrifugation.
(§2) Fresh or cryopreserved PMBCs were seeded in V-bottom 96-well plate at 0.5-1×10^5 cells per well and incubated overnight at 37° C. with 5% CO2 in RPMI 1640 medium with GlutaMAX supplement, 4.5 g/L D-glucose, 10% Fetal Bovine Serum (FBS), […] Sodium Pyruvate, 1% Penicillin/Streptomycin, 10 mM HEPES and 0.05 mM of β-mercaptoethanol. Freshly isolated or cryopreserved KCs cells were seeded in flat-bottom 96-well plates at 0.6-1.5×10^5 cells/well and incubated overnight at 37° C. 5% CO2 in RPMI 1640 Medium with GlutaMAX supplement, FBS, 1% Penicillin/Streptomycin and 10 mM HEPES. The following day, the cells were primed with 100 ng/mL of lipopolysaccharides (LPS; Sigma Aldrich) in FBS-free RPMI 1640 for 3 h. After the priming step, the media was removed and PBMCs were pre-incubated with serial concentrations of test compounds (0.00017-10 uM) or vehicle (DMSO) for 30 min in FBS-free media prior to addition of the NLRP3 activator. Cells were then stimulated with 10 uM Nigericin (Sigma Aldrich; InvivoGen) for 1.5 h. Plates were centrifuged at 1,500 rpm for 3 minutes to pellet cells and supernatant was transferred into new plates for subsequent experiments.
(§3) For ELISA assays cells were seeded into 96-well plates. Post study, supernatants were removed and the levels of mature IL-1β, IL18 and TNFα (Quantikine ELISA, R&D systems) were measured in cell conditioned media by ELISA according to manufacturer's instructions.
TNFα levels of LPS and nigericin stimulated cells were measured by HTRF assay (Cisbio, Bedford, MA). […] Measuring TNFalpha production also serves as a technical counter-screen to eliminate compounds that interfere with the HTRF reagents. Thus compounds that inhibit both IL-1β and TNFα levels are triaged for either being non-selective for inflammasome or interfering with the HTRF readout.

NLRP3 inflammasome [1] = biological target: T1, NLRP3 inflammasome (Homo sapiens, UniProt Q96P20); test: NLRP3 inflammasome activation assay in PBMCs, IL-1β release (ELISA / HTRF); design: were freshly isolated from human peripheral blood from healthy donors; StemCells Technologies; host or cells: primary human PBMCs, LPS-primed, nigericin-stimulated; conditions: LPS primed
T1 sequence (Q96P20 whole entry): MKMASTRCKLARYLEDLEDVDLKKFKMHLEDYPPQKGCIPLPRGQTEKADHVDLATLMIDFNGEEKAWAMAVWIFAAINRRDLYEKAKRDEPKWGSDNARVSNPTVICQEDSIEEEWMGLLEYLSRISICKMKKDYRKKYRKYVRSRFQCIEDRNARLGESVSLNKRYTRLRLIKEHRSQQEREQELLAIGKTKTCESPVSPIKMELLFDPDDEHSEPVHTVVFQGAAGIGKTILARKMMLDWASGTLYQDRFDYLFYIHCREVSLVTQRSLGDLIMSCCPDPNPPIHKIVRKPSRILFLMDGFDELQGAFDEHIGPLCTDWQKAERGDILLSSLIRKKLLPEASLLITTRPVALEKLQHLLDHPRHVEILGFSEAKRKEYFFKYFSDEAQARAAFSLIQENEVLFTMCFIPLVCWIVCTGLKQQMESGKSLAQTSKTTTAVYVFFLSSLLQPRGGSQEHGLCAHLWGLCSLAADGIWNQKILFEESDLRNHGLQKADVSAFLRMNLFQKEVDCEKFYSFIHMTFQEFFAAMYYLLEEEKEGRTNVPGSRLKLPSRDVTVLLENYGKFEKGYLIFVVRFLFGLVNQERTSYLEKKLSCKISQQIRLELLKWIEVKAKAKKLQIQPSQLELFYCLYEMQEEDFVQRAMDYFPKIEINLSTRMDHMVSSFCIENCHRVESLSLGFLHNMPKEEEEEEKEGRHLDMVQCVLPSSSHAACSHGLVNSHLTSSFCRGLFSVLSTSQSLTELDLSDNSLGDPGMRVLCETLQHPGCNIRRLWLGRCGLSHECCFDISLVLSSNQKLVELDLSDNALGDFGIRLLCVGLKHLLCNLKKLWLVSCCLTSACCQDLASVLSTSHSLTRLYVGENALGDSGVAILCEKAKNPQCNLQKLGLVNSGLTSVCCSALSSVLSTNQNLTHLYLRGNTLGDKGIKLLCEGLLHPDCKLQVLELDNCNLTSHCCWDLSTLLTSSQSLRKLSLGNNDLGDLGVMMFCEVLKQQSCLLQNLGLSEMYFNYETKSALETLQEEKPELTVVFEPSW
Procedure: Some of the following assays were used to determine the inhibitory activity of the compounds on the NLRP3 inflammasome using a common inflammasome activation stimuli—nigericin.
as §1, §2, §3
Human frozen PBMCs were purchased from StemCells Technologies. Cells were rapidly thawed in 37° C. water bath and resuspended in fresh assay media consisting of RPMI 1640 Medium containing 1% sodium pyruvate, 10 mM HEPES, 2.5 g/L glucose and 55 μM 2-Mercaptoethanol. Cell density was adjusted to 8.1×10^5 cells/mL. Cells were primed by adding lipopolysaccharide (Invivogen Ultrapure lipopolysaccharide from E. coli, tlrl-3pelps) at a final concentration of 100 ng/mL in cell suspension. 37 μL of cell suspension with LPS was seeded per well of a 384 well plate and incubated for 3 hours at 37° C. and 5% CO2. After priming, PBMCs were preincubated with serially diluted test compounds with starting concentration of 40 μM followed by 2-fold dilution for a 20-point curve or vehicle (DMSO) for 30 min in assay media at 37° C. and 5% CO2. Cells were then stimulated with 10 μM nigericin (Invivogen, tlrl-nig-5) for 90 min at 37° C. and 5% CO2 to activate NLRP3 dependent inflammasome pathway and IL-1β release in cell culture supernatant. Cells were centrifuged at 1200 RPM for 1 min and 40 μL of supernatant was transferred into fresh plates and stored at −80° C. until IL-1β analysis.
16 μL of supernatant was added to white 384 well HTRF plates, followed by addition of 4 μL of HTRF cocktail in each well. Plates were quickly centrifuged, sealed and incubated overnight at room temperature. Next day, HTRF signal was read on a Pherastar and ratio of 665/620 was calculated based on manufacturer's protocol to obtain concentration of IL-1β in cell culture supernatant.

PBMCs = test: CTG (CellTiter-Glo) viability assay in PBMCs; conditions: LPS and nigericin stimulated
Procedure: as §1, §2
Viability of compound treated cells was measured using CellTiter-Glo® assay (Promega, Madison, Wis.) that measures the ATP content of cells which is proportional to the number of live cells within a well. This is a counter-screen to establish that the reduction of IL-1β levels in LPS and nigericin stimulated and compound treated cells is not due to cytotoxicity, but rather through the inhibition of the inflammasome pathway. Compounds inhibiting NRLP3 inflammasome activation ultimately increase the viability of LPS and nigericin stimulated cells by blocking NLRP3 mediated pyroptosis that would otherwise lead to cell lysis.

NLRP3 inflammasome [2] = biological target: T1, NLRP3 inflammasome; test: THP-1 ASC-GFP speck assay; design: host or cells: THP-1 ASC-GFP cells, PMA-differentiated, LPS-primed, nigericin-stimulated; conditions: THP-1 ASC-GFP cells, PMA differentiated, LPS primed, 10 μM nigericin; read-out: THP1 ASC Speck IC50
Procedure, shortened: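 PMA-differentiated (500 ng/ml, overnight) THP-1 ASC-GFP cells primed with 1 μg/mL LPS for 3 h, preincubated 30 min with compound (top 40 μM, 2-fold, 20 points), then stimulated with 10 μM nigericin for 90 min at 37 °C. After fixation and Hoechst staining, imaging gave the percentage of cells bearing a GFP ASC speck.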

[3] = PBMC, read-out: PBMC TNF α IC50
[4] = 10 uM nigericin, read-out: PBMC IL-1 β IC50
[5] = 10 μM nigericin, read-out: PBMC IL-1β IC50
[6] = human PBMCs, read-out: PBMC CTG IC50

Row | IC50 (NLRP3 inflammasome [1]; [4]) [nM] | IC50 (NLRP3 inflammasome [1]; [5]) [nM] | SMILES | IC50 (TNFα; [3]) [µM] | IC50 (PBMCs; Homo sapiens, PBMC) [nM] | further results
1 | 1000 to 10000 | – | Cn1ccc(S(=N)(=O)NC(=O)Nc2c3c(cc4c2CCC4)CCC3)n1 (centres unmarked) | > 10 | < 100 | –
2 | 100 to 1000 | – | CN[C@@H]1COc2c(S(=N)(=O)NC(=O)Nc3c(C(C)C)cc(F)cc3C(C)C)cnn2C1 (some centres unmarked) | > 10 | 100 to 1000 | –
3 | < 100 | – | NS(=O)(=NC(=O)Nc1c2c(c(F)c3c1CCC3)CCC2)c1cnn2c1OCC2 (centres unmarked) | > 10 | 1000 to 10000 | –
4 | < 100 | – | NS(=O)(=NC(=O)Nc1c2c(c(F)c3c1CCC3)CCC2)c1cnn2c1OCCCC2 (centres unmarked) | > 10 | > 10000 | –
5 | < 100 | – | N=S(=O)(NC(=O)Nc1c2c(cc3c1CCC3)CCC2)c1cnn2c1OC[C@@H](NCCF)C2 (some centres unmarked) | > 10 | 100 to 1000 | –
6 | > 10000 | – | NS(=O)(=NC(=O)Nc1c2c(c(C(=O)O)c3c1CCC3)CCC2)c1cnn2c1OCCC2 (centres unmarked) | > 10 | > 10000 | –
7 | – | 1390 | Cn1ccc(S(N)(=O)=NC(=O)Nc2c3c(cc4c2CCC4)CCC3)n1 (racemic) [Example 12, N-((1,2,3,5,6,7-hexahydro-s-indacen-4-yl)carbamoyl)-1-methyl-1H-pyrazole-3-sulfonimidamide] | – | 6 | IC50 (TNFα; PBMC): > 10 µM
8 | – | 300 | CO[C@@H]1COc2c(S(N)(=O)=NC(=O)Nc3c(C(C)C)cc(F)cc3C(C)C)cnn2C1 (mixture of isomers) [Example 15, (6S)—N′-((4-fluoro-2,6-diisopropylphenyl)carbamoyl)-6-methoxy-6,7-dihydro-5H-pyrazolo[5,1-b][1,3]oxazine-3-sulfonimidamide] | – | 95 | IC50 (TNFα; PBMC): > 10 µM
9 | – | 270 | CN[C@@H]1COc2c(S(N)(=O)=NC(=O)Nc3c(C(C)C)cc(F)cc3C(C)C)cnn2C1 (mixture of isomers) [Example 16, (6S)—N′-((4-fluoro-2,6-diisopropylphenyl)carbamoyl)-6-(methylamino)-6,7-dihydro-5H-pyrazolo[5,1-b][1,3]oxazine-3-sulfonimidamide] | – | 131 | IC50 (TNFα; PBMC): > 10 µM
10 | – | 19 | CN[C@@H]1COc2c(S(N)(=O)=NC(=O)Nc3c4c(cc5c3CCC5)CCC4)cnn2C1 (mixture of isomers) [Example 17, (6S)—N′-((1,2,3,5,6,7-hexahydro-s-indacen-4-yl)carbamoyl)-6-(methylamino)-6,7-dihydro-5H-pyrazolo[5,1-b][1,3]oxazine-3-sulfonimidamide] | – | 8 | IC50 (TNFα; PBMC): > 10 µM
11 | – | 16 | CO[C@@H]1COc2c(S(N)(=O)=NC(=O)Nc3c4c(c(F)c5c3CCC5)CCC4)cnn2C1 (mixture of isomers) [Example 18, (6S)—N′-((8-fluoro-1,2,3,5,6,7-hexahydro-s-indacen-4-yl)carbamoyl)-6-methoxy-6,7-dihydro-5H-pyrazolo[5,1-b][1,3]oxazine-3-sulfonimidamide] | – | 0.1 | IC50 (TNFα; PBMC): > 10 µM
12 | – | 4720 | NS(=O)(=NC(=O)Nc1c2c(c(F)c3c1CCC3)CCC2)c1cnn2c1OCCC2 (single isomer, unassigned) [Example 21] | – | – | IC50 (TNFα; PBMC): > 10 µM; IC50 (PBMCs; [6]): 1050 nM
13 | – | 8820 | COC1COc2c(S(N)(=O)=NC(=O)Nc3c(C(C)C)cc(F)cc3C(C)C)cnn2C1 (single isomer, unassigned) [Example 23] | – | – | IC50 (TNFα; PBMC): > 10 µM; IC50 (PBMCs; [6]): 39 nM
14 | – | 240 | COC1COc2c(S(N)(=O)=NC(=O)Nc3c(C(C)C)cc(F)cc3C(C)C)cnn2C1 (single isomer, unassigned) [Example 24] | – | – | IC50 (TNFα; read-out: PBMC TNFα IC50): > 10 µM; IC50 (PBMCs; [6]): 127 nM
15 | – | > 10000 | CNC1COc2c(S(N)(=O)=NC(=O)Nc3c(C(C)C)cc(F)cc3C(C)C)cnn2C1 (single isomer, unassigned) [Example 28] | – | – | IC50 (TNFα; read-out: PBMC TNFα IC50): > 10 µM; IC50 (NLRP3 inflammasome [2]): 4.4 µM
16 | – | 6 | CN(C)C1COc2c(S(N)(=O)=NC(=O)Nc3c4c(cc5c3CCC5)CCC4)cnn2C1 (single isomer, unassigned) [Example 34] | – | – | IC50 (TNFα; read-out: PBMC TNFα IC50): > 10 µM; IC50 (PBMCs; [6]): 4 nM
17 | < 100 | – | NS(=O)(=NC(=O)Nc1c2c(cc3c1CCC3)CCC2)c1cnn2c1OCCC2 (single isomer, unassigned) [drawing 661] | > 10 | < 100 | –
18 | 1000 to 10000 | – | N=S(=O)(NC(=O)Nc1c2c(cc3c1CCC3)CCC2)c1cnn2c1OCCC2 (single isomer, unassigned) [drawing 662] | – | – | IC50 (TNFα; read-out: PBMC TNF α IC50): > 10 µM; IC50 (PBMCs; [6]): < 100 nM
19 | < 100 | – | NS(=O)(=NC(=O)Nc1c2c(c(F)c3c1CCC3)CCC2)c1cnn2c1OCCC2 (single isomer, unassigned) [drawing 669] | > 10 | < 100 | –
20 | 1000 to 10000 | – | N=S(=O)(NC(=O)Nc1c2c(c(F)c3c1CCC3)CCC2)c1cnn2c1OCCC2 (single isomer, unassigned) [drawing 670] | – | – | IC50 (TNFα; read-out: PBMC TNF α IC50): > 10 µM; IC50 (PBMCs; [6]): 100 to 1000 nM
21 | 100 to 1000 | – | CN[C@@H]1COc2c(S(=N)(=O)NC(=O)Nc3c(C(C)C)cc(F)cc3C(C)C)cnn2C1 (single isomer, unassigned) [drawing 675] | > 10 | > 10000 | –
22 | > 10000 | – | CN[C@@H]1COc2c(S(=N)(=O)NC(=O)Nc3c(C(C)C)cc(F)cc3C(C)C)cnn2C1 (single isomer, unassigned) [drawing 676] | – | – | IC50 (TNFα; read-out: PBMC TNF α IC50): > 10 µM
23 | 100 to 1000 | – | CO[C@@H]1COc2c(S(=N)(=O)NC(=O)Nc3c(C(C)C)cc(F)cc3C(C)C)cnn2C1 (some centres unmarked) [drawing 663] | > 10 | < 100 | –
24 | < 100 | – | CN[C@@H]1COc2c(S(=N)(=O)NC(=O)Nc3c4c(cc5c3CCC5)CCC4)cnn2C1 (some centres unmarked) [drawing 665] | > 10 | < 100 | –
25 | < 100 | – | CO[C@@H]1COc2c(S(=N)(=O)NC(=O)Nc3c4c(c(F)c5c3CCC5)CCC4)cnn2C1 (some centres unmarked) [drawing 666] | > 10 | < 100 | –
26 | 100 to 1000 | – | CO[C@@H]1COc2c(S(=N)(=O)NC(=O)Nc3c4c(cc5c3CCC5)CCC4)cnn2C1 (some centres unmarked) [drawing 667] | > 10 | 100 to 1000 | –
